Source: ChEMBL document CHEMBL6078721, “Structurally diverse chromane meroterpenoids from Rhododendron capitatum with multifunctional neuroprotective effects” (Eur J Med Chem, 2025)
Values belong to the compound of their own block, whether it stands above or below them. The source made the active and inactive calls. The calls are words filed in the database; no cut-off is given here.

Key:
PC-12 [1] = test: Neuroprotective activity against 6-OHDA-induced neurotoxicity in rat PC-12 cells at 5 to 40 uM incubated for 24 hrs by MTT assay; assay type: functional, cell-based; conditions: dose 5-40 µM
PC-12 [2] = test: Induction of neuronal differentiation in rat PC-12 cells assessed as increase in neurite bearing cells incubated for 48 hrs in presence of NGF by microscopic analysis; assay type: functional, cell-based; conditions: dose 1-10 µM
BV-2 [3] = test: Anti-inflammatory activity against mouse BV-2 cells assessed as inhibition of LPS-induced NO production pretreated for 3 hrs followed by LPS addition measured after 24 hrs by Griess reagent based assay; assay type: functional, cell-based
PC-12 [4] = test: Induction of neuronal differentiation in rat PC-12 cells at 10 uM incubated for 48 hrs by microscopic analysis; assay type: functional, cell-based
PC-12 [5] = test: Neuroprotective activity against H2O2-induced neurotoxicity in rat PC-12 cells at 5 to 40 uM incubated for 24 hrs by MTT assay; assay type: functional, cell-based; conditions: dose 5-40 µM
BV-2 [6] = test: Anti-inflammatory activity against mouse BV-2 cells assessed as inhibition of LPS-induced JNK activation at 30 uM pretreated for 3 hrs followed by LPS addition measured after 24 hrs; assay type: functional, cell-based; conditions: time 27.0 hrs
BV-2 [7] = test: Anti-inflammatory activity against mouse BV-2 cells assessed as reduction in LPS-induced iNOS expression pretreated for 3 hrs followed by LPS addition measured after 24 hrs by Western blot analysis; assay type: functional, cell-based; conditions: dose 3-30 µM, time 27.0 hrs
PC-12 [8] = test: Neuroprotective activity against H2O2-induced neurotoxicity in rat PC-12 cells incubated for 24 hrs by MTT assay; assay type: functional, cell-based; conditions: dose 5-40 µM
BV-2 [9] = test: Anti-inflammatory activity against mouse BV-2 cells assessed as inhibition of LPS-induced NF-kappaB p65 nuclear entry at 3 to 30 uM pretreated for 3 hrs followed by LPS addition measured after 24 hrs by Western blot analysis; assay type: functional, cell-based; conditions: dose 3-30 µM, time 27.0 hrs
BV-2 [10] = test: Anti-inflammatory activity against mouse BV-2 cells assessed as reduction in LPS-induced COX-2 expression pretreated for 3 hrs followed by LPS addition measured after 24 hrs by immunofluorescence based analysis; assay type: functional, cell-based; conditions: dose 3-30 µM
Caenorhabditis elegans [11] = test: Antialzheimer activity in transgenic Caenorhabditis elegans CL4176 expressing human amyloid-beta peptide assessed as decrease in paralysis rate at 25 uM incubated for 14 hrs; assay type: functional, organism-based
BV-2 [12] = test: Anti-inflammatory activity against mouse BV-2 cells assessed as reduction in LPS-induced COX-2 expression pretreated for 3 hrs followed by LPS addition measured after 24 hrs by Western blot analysis; assay type: functional, cell-based; conditions: dose 3-30 µM, time 27.0 hrs
Caenorhabditis elegans [13] = test: Antioxidant activity in Caenorhabditis elegans CL4176 expressing human amyloid-beta peptide assessed as decrease in ROS level at 50 uM incubated for 7 days by H2DCF-DA probe based analysis relative to control; assay type: functional; parameters: scale not given: the % may be the effect or the level left; conditions: time 7 day
BV-2 [14] = test: Anti-inflammatory activity against mouse BV-2 cells assessed as inhibition of LPS-induced p-JNK activation at 30 uM pretreated for 3 hrs followed by LPS addition measured after 24 hrs; assay type: functional, cell-based; conditions: time 27.0 hrs
[15] = Induction of neuronal differentiation in rat PC-12 cells assessed as neurite growth at 10 uM incubated for 48 hrs in presence of NGF by microscopic analysis (reference value: 8.39 +/- 0.03 %); assay type: functional
[16] = Induction of neuronal differentiation in rat PC-12 cells assessed as neurite growth by measuring fold change at 10 uM incubated for 48 hrs in presence of NGF by microscopic analysis relative to NGF; assay type: functional
PC-12 [17] = test: Neuroprotective activity against H2O2-induced neurotoxicity in rat PC-12 cells assessed as increase in catalase level at 2.5 to 40 uM by Western blot analysis; assay type: functional, cell-based; conditions: dose 2.5-40 µM
PC-12 [18] = test: Neuroprotective activity against H2O2-induced neurotoxicity in rat PC-12 cells assessed as increase in HO-1 level at 2.5 to 40 uM by Western blot analysis; assay type: functional, cell-based; conditions: dose 2.5-40 µM
BV-2 [19] = test: Anti-inflammatory activity against mouse BV-2 cells assessed as inhibition of LPS-induced NF-kappaB p65 phosphorylation pretreated for 3 hrs followed by LPS addition measured after 24 hrs by Western blot analysis; assay type: functional, cell-based; conditions: dose 3-30 µM, time 27.0 hrs
Caenorhabditis elegans [20] = test: Antialzheimer activity in transgenic Caenorhabditis elegans CL4176 expressing human amyloid-beta peptide assessed as decrease in paralysis rate at 12.5 uM incubated for 14 hrs relative to control; assay type: functional; parameters: scale not given: the % may be the effect or the level left

Structure (SMILES): Cc1cc(O)c2c(c1)O[C@@]1(C)CCC[C@@]3(C)[C@H](C(=O)CC(C)C)[C@@H]2[C@H]31
Activity (PC-12 [1]): Active; Capable Of Rescuing Cell Injury To Greater Extent
Activity (PC-12 [2]): Dose-dependent-effect
IC50 (BV-2 [3]): 28.2 µM
Activity (PC-12 [4]): Active
Activity (PC-12 [5]): Active

Structure (SMILES): CC(C)=CC(=O)[C@@H]1[C@H]2c3c(O)cc(C)cc3O[C@@]3(C)CCC[C@]1(C)[C@@H]23
inhibition (BV-2 [6]): Active; Activity Was Comparable To That Of Quercetin
Activity (BV-2 [7]): Dose-dependent-effect; Exhibited More Potency Than Quercetin
Activity (PC-12 [8]): Dose-dependent-effect; Activity Was Comparable To That Of Ngf
Activity (PC-12 [1]): Active; Activity Was Comparable To That Of Ngf
inhibition (BV-2 [9]): Active; Exhibited Mild Inhibition
Activity (BV-2 [10]): Dose-dependent-effect
Activity (Caenorhabditis elegans [11]): Active; Activity Was Comparable With Quercetin At 50 Um
Activity (BV-2 [12]): Dose-dependent-effect; Exhibited More Potency Than Quercetin
IC50 (BV-2 [3]): 17.5 µM
Activity (Caenorhabditis elegans [13]): >=18.7%

Structure (SMILES): Cc1cc(O)c2c(c1)O[C@@]1(C)CC[C@@H](C(C)(C)O)[C@@H]2C1
Activity (PC-12 [1]): Active; Capable Of Rescuing Cell Injury To Greater Extent

Structure (SMILES): C=C(C)[C@@H](O)CC[C@@]1(C)[C@@H]2CC[C@]3(C)Oc4cc(C)cc(O)c4[C@H]1[C@H]23
Activity (PC-12 [1]): Active; Capable Of Rescuing Cell Injury To Greater Extent

Structure (SMILES): O=c1c(O)c(-c2ccc(O)c(O)c2)oc2cc(O)cc(O)c12 [QUERCETIN]
IC50 (BV-2 [3]): 11.8 µM

Structure (SMILES): CC(C)=CCC/C(C)=C/CC/C(C)=C/Cc1c(O)cc(C)cc1O [GRIFOLIN]
Activity (PC-12 [17]): Active
IC50 (BV-2 [3]): 18.9 µM
Activity (PC-12 [18]): Active

Structure (SMILES): COC(C)(C)CC(=O)[C@@H]1[C@H]2c3c(O)cc(C)cc3O[C@@]3(C)CCC[C@]1(C)[C@@H]23
Activity (PC-12 [1]): Active; Activity Was Comparable To That Of Ngf
Activity (PC-12 [2]): Dose-dependent-effect
Activity (PC-12 [4]): Active
Activity (PC-12 [5]): Active; Activity Was Comparable To That Of Ngf

Structure (SMILES): COC(C)(C)C/C=C/C(C)=C/CC[C@@]1(C)C=Cc2c(O)cc(C)cc2O1
Activity [15]: 22.93%
Activity (PC-12 [2]): Dose-dependent-effect
fold change (FC) [16]: ~3
Activity (PC-12 [4]): Active

Now from value to compound, other results behind:

IC50 (BV-2 [3]): 22.1 µM
Structure (SMILES): C=C(C)[C@H](O)CC[C@@]1(C)[C@@H]2CC[C@]3(C)Oc4cc(C)cc(O)c4[C@H]1[C@H]23
Activity (PC-12 [1]): Active; Activity Was Comparable To That Of Ngf
Activity (PC-12 [5]): Active; Activity Was Comparable To That Of Ngf

IC50 (BV-2 [3]): 15.8 µM
Structure (SMILES): C/C(=C\CC/C(C)=C/CC[C@@]1(C)C=Cc2c(O)cc(C)cc2O1)CO
Activity (BV-2 [7]): Dose-dependent-effect
Activity (BV-2 [12]): Dose-dependent-effect
inhibition (BV-2 [14]): Active; Exhibited Mild Inhibition

IC50 (BV-2 [3]): 11.3 µM
Structure (SMILES): C/C(=C/CC/C(C)=C/CC[C@@]1(C)C=Cc2c(O)cc(C)cc2O1)CO

IC50 (BV-2 [3]): > 30 µM
Structure (SMILES): Cc1cc(O)c2c(c1)O[C@@]1(C)CC[C@H]3O[C@@H]2[C@@H]1C3(C)C
Activity [15]: 21.85%
Activity (PC-12 [1]): Active; Activity Was Comparable To That Of Ngf
Activity (PC-12 [2]): Dose-dependent-effect
fold change (FC) [16]: ~3
Activity (PC-12 [4]): Active
Activity (PC-12 [5]): Active; Activity Was Comparable To That Of Ngf

IC50 (BV-2 [3]): 21.3 µM
Structure (SMILES): C/C(=C\CC[C@@]1(C)C=Cc2c(O)cc(C)cc2O1)CC(=O)CC(C)C

IC50 (BV-2 [3]): 25.2 µM
Structure (SMILES): C=C(C)[C@@H](O)CC/C(C)=C/CC[C@@]1(C)C=Cc2c(O)cc(C)cc2O1

IC50 (BV-2 [3]): 19.9 µM
Structure (SMILES): CC(C)=CC[C@H](O)/C(C)=C/CC[C@@]1(C)C=Cc2c(O)cc(C)cc2O1
Activity (PC-12 [2]): Dose-dependent-effect
Activity (PC-12 [4]): Active

IC50 (BV-2 [3]): 15.7 µM
Structure (SMILES): CC(C)=CC(=O)C[C@]1(C)Oc2cc(C)cc3c2[C@H]2C[C@](C)(CC[C@H]21)O3
inhibition (BV-2 [6]): Active; Activity Was Comparable To That Of Quercetin
Activity (BV-2 [7]): Active
Activity (PC-12 [1]): Active; Activity Was Comparable To That Of Ngf
Activity (PC-12 [17]): Active; Exhibited More Activity Than That Of Positive Group
Activity (BV-2 [12]): Active
inhibition (BV-2 [19]): Dose-dependent-effect
Activity (Caenorhabditis elegans [20]): ~20%
Activity (PC-12 [5]): Active; Activity Was Comparable To That Of Ngf
Activity (PC-12 [18]): Active; Exhibited More Activity Than That Of Positive Group
Activity (Caenorhabditis elegans [13]): >=15.2%

IC50 (BV-2 [3]): > 30 µM
Structure (SMILES): C=C(C)[C@@H]1CC[C@]2(C)Oc3cc(C)cc(O)c3C[C@H]12
Activity (PC-12 [1]): Active; Activity Was Comparable To That Of Ngf
Activity (PC-12 [5]): Active; Activity Was Comparable To That Of Ngf

IC50 (BV-2 [3]): 20 µM
Structure (SMILES): C/C(=C\Cc1c(O)cc(C)cc1O)CC/C=C(\C)CC(=O)CC(C)C
